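Compound exposure: 48 hours, 5 concentrations, 96-well plates. GI50 is the concentration that inhibits growth by half. TGI marks complete inhibition of growth.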

What all share (assay): inhibition of tumour cell growth, NCI panel, 48 h
The test system of assay [1] is SW-620 colon.
For assay [2], the system named is RPMI-8226 leukemia.
Assay [3] has as its system HL-60(TB) leukemia.
Assay [4] has as its system SNB-19 CNS.
Assay [5] concerns A498 renal.
Assay [6] has as its system HCC-2998 colon.
Assay [7] deals with K-562 leukemia.
The test system of assay [8] is HS 578T breast.
Assay [9] concerns UO-31 renal.
For assay [10], the system named is OVCAR-3 ovarian.

As to `CC(=O)OC1CCC2(C)C(=CCC3C4CCC5(OC6CC(C)CN(C(C)=O)C6C5C)C(C)=C4C(=O)C32)C1` (configuration not stated), the TGI was more than 100 µM in assay [1]; 37.6 µM in [2]; more than 100 µM in assay [3]; 32.7 µM in assay [4]; 31.2 µM in assay [5]; 28.8 µM in assay [6]. Also, the TGI in assay [7] worked out at 52.7 µM; in [8], 31.4 µM; in [9], 81.4 µM; in assay [10], 72.6 µM.

For the compound `COc1cc(C2=NN(c3ccc(S(N)(=O)=O)cc3)C(c3ccc(Cl)cc3)C2)cc(OC)c1OC` (configuration not stated), the GI50 in assay [1] was 4.49 µM; in [2], 3.7 µM; in [3] it was 3.94 µM; in assay [4], 5.48 µM; in [5] it was 1.93 µM; in assay [6], 6.93 µM. The GI50 in [7] is 5.67 µM; in assay [8] it was 3.58 µM; in assay [9], 2.5 µM; in assay [10], 4.68 µM. Besides, the TGI in [1] was more than 100 µM; in assay [2], more than 100 µM; in assay [3] it was more than 100 µM; in [4] it was more than 100 µM; in [5] it was 7.68 µM; in assay [6] it was more than 100 µM. The TGI in [7], in [8], in [9] and in assay [10] was more than 100 µM in each case.

`CC(CN1CCN(CC(C)Nc2ccnc3cc(Cl)ccc23)CC1)Nc1ccnc2cc(Cl)ccc12` (configuration not stated): the GI50 in [1] was 2.82 µM; in [8] it was 2.55 µM. Further, the TGI in [1] was more than 100 µM; in assay [2], more than 20.1 µM; in assay [3], 19.3 µM; in assay [4] it was more than 79.9 µM; in assay [5], more than 56.8 µM; in [6], 50.2 µM. Further, the TGI in [7] is more than 100 µM; in [8], 9.69 µM; in assay [9] it was 30.7 µM; in [10] it was more than 64.4 µM.

For the compound `Cc1cc(C)n(C(=O)c2nn(-c3ccc(Cl)cc3)cc2O)n1`, the GI50 in [1] was 8.02 µM; in assay [2], 3.34 µM; in [3], 39.6 µM; in assay [4] it was 3.6 µM; in [5], 2.9 µM; in assay [6], 15.1 µM. In addition, the GI50 in assay [7] is more than 100 µM; in assay [8] it was 3.21 µM; in [9], 3.01 µM; in assay [10] it was 12.7 µM. The TGI in assay [1] is more than 100 µM; in assay [2] it was 17 µM; in [3], more than 100 µM; in assay [4] it was more than 100 µM; in assay [5], 8.77 µM; in [6], more than 100 µM. The TGI was more than 100 µM in assay [7], more than 100 µM in [8], 19.2 µM in assay [9] and 87.7 µM in assay [10].

Regarding `CC(O)C(O)C(O)C(/C=N\Nc1ccccc1)=N/Nc1ccccc1` (configuration not stated), the TGI in assay [1] is 25.8 µM; in assay [2] it was 57.1 µM; in assay [3] it was 45.3 µM; in [4] it was 29.1 µM; in assay [5], 22.6 µM; in assay [6] it was 23.3 µM. For the same compound, the TGI in [7] amounted to 40.8 µM; in assay [8], 24.7 µM; in assay [9], 25.7 µM; in assay [10] it was 40.4 µM.

Consider `COc1ccc(/C=C/C(=O)c2cc3c(N)c(C(=O)Nc4ccccc4C)sc3nc2C)cc1`, for which the GI50 in assay [1] was 0.83 µM; in assay [2], 1.4 µM; in [3], 0.239 µM; in assay [4], 1.15 µM; in assay [5], 0.197 µM; in [6], 1.09 µM. Further, the GI50 in [7] was 0.267 µM; in assay [8], 0.188 µM; in assay [9], 0.861 µM; in [10] it was 0.168 µM. Also, the TGI in assay [1] is more than 50 µM; in assay [2], more than 25.5 µM; in assay [3], 1.99 µM; in assay [4], more than 50 µM; in assay [5], 2.64 µM; in assay [6], 3.61 µM. The TGI in assay [7] was more than 50 µM; in assay [8], more than 50 µM; in assay [9], more than 50 µM; in assay [10], 0.955 µM.

With `C[C@]12C3CC[C@@]4(CO)C[C@]3(CCC1[C@](C)(C(=O)O)CC[C@@H]2O)CC4=O` (some centres not stated), the GI50 in [1], in [2], in [3], in assay [4], in assay [5] and in assay [6] was more than 100 µM in each case. Besides, the GI50 in [7], in assay [8], in [9] and in assay [10] was more than 100 µM each time. Moreover, the TGI in [1], in [2], in [3], in [4], in [5] and in assay [6] was more than 100 µM each time. For the same compound, the TGI in assay [7], in [8], in assay [9] and in assay [10] was more than 100 µM in each case.

Consider `COc1cc2cc(Oc3ccc(NC(=O)Nc4ccc(Cl)c(C(F)(F)F)c4)cc3)c(C)nc2cc1OC`, for which the GI50 is 1.25 µM in assay [1]; 0.635 µM in assay [2]; 1.13 µM in assay [3]; 1.41 µM in assay [4]; 0.754 µM in assay [5]; 1.77 µM in assay [6]. Also, the GI50 was 1.11 µM in assay [7], 0.72 µM in assay [8], 0.924 µM in assay [9] and 1.16 µM in assay [10]. Also, the TGI in assay [1] turned out to be 4.57 µM; in assay [2], 1.65 µM; in [3], 3.12 µM; in [4], 5.31 µM; in assay [5] it was 3.32 µM; in assay [6], 5.48 µM. Moreover, the TGI in [7] turned out to be 4.81 µM; in assay [8], 2.31 µM; in assay [9] it was 2.38 µM; in assay [10] it was 4.45 µM.

On to `NC(Cc1ccnnc1)C(=O)O` (configuration not stated), for which the TGI in [1], in [2], in [3], in assay [4], in [5] and in assay [6] was more than 100 µM throughout. The TGI in assay [7], in [8], in assay [9] and in assay [10] was more than 100 µM in each case.

(Values after PubChem BioAssay (NCI).)
